Experimental data published in ChEMBL document CHEMBL1201862, “PubChem BioAssay data set” (2004).
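Method: 48-hour compound exposure of cells in 96-well plates, five concentrations, linear interpolation of endpoints. GI50 = concentration required for 50% inhibition of growth.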 Calls of active or inactive are those of the source. Cut-off read from the data, not from the text of the source: active = GI50 up to about 1.1 µM and inactive = higher.

Columns and labels:
Assay in all cases: NCI-60 cell line screen, 48 h
A498 = tested on: A498
DMS-273 = tested on: DMS-273
HOP-62 = tested on: HOP-62
SR = tested on: SR
HL-60 = tested on: HL-60
SF-539 = tested on: SF-539
NCI-H460 = tested on: NCI-H460
SW-620 = tested on: SW-620
DLD-1 = tested on: DLD-1
NCI-H226 = tested on: NCI-H226
SNB-75 = tested on: SNB-75
SF-268 = tested on: SF-268
HCT-116 = tested on: HCT-116
TK-10 = tested on: TK-10
HT-29 = tested on: HT-29
Malme-3M = tested on: Malme-3M
SK-MEL-2 = tested on: SK-MEL-2
HCT-15 = tested on: HCT-15
COLO 205 = tested on: COLO 205
DMS-114 = tested on: DMS-114
RPMI-8226 = tested on: RPMI-8226
EKVX = tested on: EKVX
LOX IMVI = tested on: LOX IMVI
SN12C = tested on: SN12C
K562 = tested on: K562
UACC-257 = tested on: UACC-257
ACHN = tested on: ACHN
HCC 2998 = tested on: HCC 2998
OVCAR-8 = tested on: OVCAR-8
OVCAR-4 = tested on: OVCAR-4
UACC-62 = tested on: UACC-62
XF498 = tested on: XF498
OVCAR-3 = tested on: OVCAR-3
SF-295 = tested on: SF-295
KM-20L2 = tested on: KM-20L2
SNB-19 = tested on: SNB-19
786-0 = tested on: 786-0
CCRF-CEM = tested on: CCRF-CEM
RXF 393 = tested on: RXF 393
SK-MEL-5 = tested on: SK-MEL-5
A549 = tested on: A549
U-251 = tested on: U-251
IGROV-1 = tested on: IGROV-1
UO-31 = tested on: UO-31
SK-MEL-28 = tested on: SK-MEL-28
M14 = tested on: M14
MOLT-4 = tested on: MOLT-4
NCI-H23 = tested on: NCI-H23
LXFL 529 = tested on: LXFL 529
KM12 = tested on: KM12
SK-OV-3 = tested on: SK-OV-3
NCI-H522 = tested on: NCI-H522
M19-MEL = tested on: M19-MEL
CAKI-1 = tested on: CAKI-1
SNB-78 = tested on: SNB-78
OVCAR-5 = tested on: OVCAR-5
HOP-92 = tested on: HOP-92
HOP-18 = tested on: HOP-18

## CCOC(=O)C(C(CC(=O)OC)NC(=O)OCc1ccccc1)C1(C)OCCO1 (centres undefined)
A498
  GI50: > 100 µM (inactive)
DMS-273
  GI50: > 100 µM (inactive)
HOP-62
  GI50: > 100 µM (inactive)
SR
  GI50: > 100 µM (inactive)
HL-60
  GI50: > 100 µM (inactive)
SF-539
  GI50: > 100 µM (inactive)
NCI-H460
  GI50: > 100 µM (inactive)
SW-620
  GI50: > 100 µM (inactive)
DLD-1
  GI50: > 100 µM (inactive)
NCI-H226
  GI50: > 100 µM (inactive)
SNB-75
  GI50: 41.1 µM (inactive)
SF-268
  GI50: > 100 µM (inactive)
HCT-116
  GI50: > 100 µM (inactive)
TK-10
  GI50: > 100 µM (inactive)
HT-29
  GI50: > 100 µM (inactive)
Malme-3M
  GI50: > 100 µM (inactive)
SK-MEL-2
  GI50: > 100 µM (inactive)
HCT-15
  GI50: > 100 µM
COLO 205
  GI50: > 100 µM (inactive)
DMS-114
  GI50: > 100 µM (inactive)
RPMI-8226
  GI50: > 100 µM (inactive)
EKVX
  GI50: > 100 µM (inactive)
LOX IMVI
  GI50: > 100 µM (inactive)
SN12C
  GI50: > 100 µM (inactive)
K562
  GI50: > 100 µM (inactive)
UACC-257
  GI50: > 100 µM (inactive)
ACHN
  GI50: > 100 µM (inactive)
HCC 2998
  GI50: > 100 µM (inactive)
OVCAR-8
  GI50: > 100 µM (inactive)
OVCAR-4
  GI50: > 100 µM (inactive)
UACC-62
  GI50: > 100 µM (inactive)
XF498
  GI50: 61.4 µM (inactive)
OVCAR-3
  GI50: > 100 µM (inactive)
SF-295
  GI50: > 100 µM (inactive)
KM-20L2
  GI50: > 100 µM (inactive)
SNB-19
  GI50: > 100 µM (inactive)
786-0
  GI50: > 100 µM (inactive)
CCRF-CEM
  GI50: > 100 µM (inactive)
RXF 393
  GI50: > 100 µM (inactive)
SK-MEL-5
  GI50: > 100 µM (inactive)
A549
  GI50: > 100 µM (inactive)
U-251
  GI50: > 100 µM (inactive)
IGROV-1
  GI50: > 100 µM (inactive)
UO-31
  GI50: > 100 µM (inactive)
SK-MEL-28
  GI50: > 100 µM (inactive)
M14
  GI50: > 100 µM (inactive)
MOLT-4
  GI50: > 100 µM (inactive)
NCI-H23
  GI50: > 100 µM (inactive)
LXFL 529
  GI50: > 100 µM (inactive)

## CCC1(O)C(=O)OCc2c1cc1n(c2=O)Cc2c-1nc1ccccc1c2OC (centres undefined)
A498
  GI50: 0.0513 µM (active)
DMS-273
  GI50: < 0.01 µM (active)
KM12
  GI50: 0.167 µM (active)
HOP-62
  GI50: < 0.01 µM (active)
SR
  GI50: < 0.01 µM (active)
HL-60
  GI50: < 0.01 µM (active)
SK-OV-3
  GI50: 0.0386 µM (active)
SF-539
  GI50: < 0.01 µM (active)
NCI-H460
  GI50: < 0.01 µM (active)
SW-620
  GI50: < 0.01 µM (active)
DLD-1
  GI50: 0.488 µM (active)
NCI-H226
  GI50: < 0.01 µM (active)
SNB-75
  GI50: < 0.0156 µM (active)
SF-268
  GI50: < 0.01 µM (active)
HCT-116
  GI50: 0.0453 µM (active)
TK-10
  GI50: 3.52 µM (inactive)
NCI-H522
  GI50: 0.0242 µM (active)
HT-29
  GI50: 0.061 µM (active)
Malme-3M
  GI50: 0.15 µM (active)
SK-MEL-2
  GI50: 2.16 µM (inactive)
HCT-15
  GI50: 0.117 µM
M19-MEL
  GI50: 0.0438 µM (active)
COLO 205
  GI50: 0.378 µM (active)
DMS-114
  GI50: < 0.0117 µM (active)
RPMI-8226
  GI50: < 0.0212 µM (active)
EKVX
  GI50: 2.91 µM (inactive)
LOX IMVI
  GI50: < 0.01 µM (active)
SN12C
  GI50: < 0.01 µM (active)
K562
  GI50: < 0.0305 µM (active)
CAKI-1
  GI50: < 0.01 µM (active)
SNB-78
  GI50: 2.13 µM (inactive)
UACC-257
  GI50: 0.0575 µM (active)
OVCAR-5
  GI50: 0.0711 µM (active)
ACHN
  GI50: < 0.01 µM (active)
HCC 2998
  GI50: 0.218 µM (active)
OVCAR-8
  GI50: 0.0194 µM (active)
OVCAR-4
  GI50: 0.187 µM (active)
UACC-62
  GI50: < 0.01 µM (active)
OVCAR-3
  GI50: 0.257 µM (active)
SF-295
  GI50: < 0.01 µM (active)
KM-20L2
  GI50: 0.0512 µM (active)
SNB-19
  GI50: < 0.01 µM (active)
786-0
  GI50: < 0.01 µM (active)
CCRF-CEM
  GI50: < 0.01 µM (active)
HOP-92
  GI50: 0.106 µM (active)
RXF 393
  GI50: < 0.0136 µM (active)
SK-MEL-5
  GI50: 0.0184 µM (active)
A549
  GI50: < 0.0127 µM (active)
U-251
  GI50: < 0.01 µM (active)
IGROV-1
  GI50: 0.174 µM (active)
UO-31
  GI50: < 0.0221 µM (active)
SK-MEL-28
  GI50: 0.32 µM (active)
M14
  GI50: < 0.0176 µM (active)
MOLT-4
  GI50: < 0.01 µM (active)
HOP-18
  GI50: 0.372 µM (active)
NCI-H23
  GI50: < 0.0121 µM (active)
LXFL 529
  GI50: 0.434 µM (active)

## N#C/C(=C1\SCC(=O)N1c1ccccc1)c1nc2ccccc2[nH]1
A498
  GI50: > 100 µM (inactive)
DMS-273
  GI50: > 100 µM (inactive)
HOP-62
  GI50: > 100 µM (inactive)
HL-60
  GI50: > 100 µM (inactive)
SK-OV-3
  GI50: > 100 µM (inactive)
SF-539
  GI50: > 100 µM (inactive)
NCI-H460
  GI50: > 100 µM (inactive)
SW-620
  GI50: > 100 µM (inactive)
DLD-1
  GI50: > 100 µM (inactive)
NCI-H226
  GI50: > 100 µM (inactive)
SNB-75
  GI50: > 100 µM (inactive)
SF-268
  GI50: > 100 µM (inactive)
HCT-116
  GI50: > 100 µM (inactive)
TK-10
  GI50: > 100 µM (inactive)
NCI-H522
  GI50: > 100 µM (inactive)
HT-29
  GI50: > 100 µM (inactive)
Malme-3M
  GI50: > 100 µM (inactive)
SK-MEL-2
  GI50: > 100 µM (inactive)
HCT-15
  GI50: > 100 µM
M19-MEL
  GI50: > 100 µM (inactive)
COLO 205
  GI50: > 100 µM (inactive)
DMS-114
  GI50: > 100 µM (inactive)
EKVX
  GI50: > 100 µM (inactive)
LOX IMVI
  GI50: > 100 µM (inactive)
SN12C
  GI50: > 100 µM (inactive)
K562
  GI50: > 100 µM (inactive)
CAKI-1
  GI50: > 100 µM (inactive)
SNB-78
  GI50: > 100 µM (inactive)
UACC-257
  GI50: > 100 µM (inactive)
OVCAR-5
  GI50: > 100 µM (inactive)
ACHN
  GI50: > 100 µM (inactive)
OVCAR-8
  GI50: > 100 µM (inactive)
OVCAR-4
  GI50: > 100 µM (inactive)
UACC-62
  GI50: > 100 µM (inactive)
XF498
  GI50: > 100 µM (inactive)
OVCAR-3
  GI50: > 100 µM (inactive)
SF-295
  GI50: > 100 µM (inactive)
KM-20L2
  GI50: > 100 µM (inactive)
SNB-19
  GI50: > 100 µM (inactive)
786-0
  GI50: > 100 µM (inactive)
CCRF-CEM
  GI50: > 100 µM (inactive)
HOP-92
  GI50: > 100 µM (inactive)
RXF 393
  GI50: > 100 µM (inactive)
SK-MEL-5
  GI50: > 100 µM (inactive)
A549
  GI50: > 100 µM (inactive)
U-251
  GI50: > 100 µM (inactive)
IGROV-1
  GI50: > 100 µM (inactive)
UO-31
  GI50: > 100 µM (inactive)
SK-MEL-28
  GI50: > 100 µM (inactive)
M14
  GI50: > 100 µM (inactive)
MOLT-4
  GI50: > 100 µM (inactive)
NCI-H23
  GI50: > 100 µM (inactive)
LXFL 529
  GI50: > 100 µM (inactive)
